From patent publication US20220204479A1, “PYRIMIDINE COMPOUND AND PREPARATION METHOD THEREFOR” (Wuhan Humanwell Innovative Drug Research And Development …, priority 2019, published 2022)
Values after ≈ are worked out from the molar mass of the structure shown. Read-outs that look alike come from different tables or passages of the source. Values belong to the compound of their own block, whether it stands above or below them.

How the values were obtained:
[1] = cited from earlier work; for probability of discontinuation due to serious adverse events: patients taking the drug
autotaxin (ATX) enzyme = target: T1, autotaxin (ATX) enzyme (Homo sapiens, UniProt Q13822); experiment: Autotaxin (ATX) enzyme activity inhibition test (Cayman Autotaxin Inhibitor Screening Assay Kit); format: biochemical; settings: 37° C., 30 min, OD405, read-out: IC50, inhibitory effect on ATX enzyme activity
T1 construct: purchased Cayman 700580
Procedure: The inhibitory effects of the compounds on the autotaxin enzyme were detected using the Autotaxin Inhibitor Screening Assay Kit (Cayman, 700580). […] Subsequently, the 8 concentrations were diluted with Autotaxin Assay buffer (1×) provided in the kit into 19× compound working solutions (DMSO content was 1.9%). The Autotaxin Assay Reagent (10×) was taken out and diluted by 10 times with Autotaxin Assay Buffer (1×). The Autotaxin Substrate was taken out, dissolved by adding 1.2 mL of Autotaxin Assay Buffer (1×), mixed evenly and let stand by at room temperature. In a 96-well plate, 150 μL of Autotaxin Assay Buffer (1×), 10 μL of the prepared and diluted 19× compound working solution, 10 μL of Autotaxin Assay Reagent (1×), and 20 μL of the dissolved Autotaxin Substrate were added to each of the wells for each concentration, and homogenously mixed. The 96-well plate was shaken in a constant temperature shaker at 37° C. and incubated in the dark for 30 min, and then the plate was taken out and placed on a microplate reader to read OD405.

ATX enzyme in rat plasma = target: T2, ATX enzyme in rat plasma (Rattus norvegicus, UniProt Q64610); experiment: Inhibition of activity of ATX enzyme in rat plasma (LPA18:2 formation, LC-MSMS); format: biochemical; settings: for inhibitory activity on ATX enzyme in rat plasma compared with control compounds 1 and 2: comparison in words
T2 construct: Whole blood was collected from rats and anticoagulated with heparin; from tissue; host or cells: rat plasma (heparin)
Procedure: Whole blood was collected from rats and anticoagulated with heparin. The blood collection tubes were centrifuged at 3,000 rpm for 15 min, and the plasma was placed on ice for use.
The compound was serially diluted with DMSO: 30% ACN=1:19 according to the conventional concentration requirements, and then placed on ice. 147 μL of plasma, which was placed on ice, was added to a 96-well plate, and then 3 μL of each of the gradient solutions of the compound (finally 1[…] DMSO) was added. A group containing none of the compounds was set as the positive group. The 96-well plate was mixed uniformly, and incubated at 37° C. for 3 h. In addition, a blank group was also provided. At the beginning of the incubation, the plasma of blank group was added to with excessive acetonitrile containing the internal standard LPA17: 0 to precipitate the plasma protein, vortexed to mix, and stored at 4° C. The blank group was provided to determine the baseline concentration of endogenous LPA.
A peak area of LPA18: 2 and a peak area of internal standard LPA17: 0 were detected using LC-MSMS mass spectrometry.
(§1) A ratio of the peak area of LPA18: 2 to the peak area of internal standard LPA17: 0 was calculated, and a formation inhibition rate of LPA18: 2 was calculated according to the following formula:
(§2) Inhibition rate (%)=100−(compound group with different concentrations−blank group)/(positive group−blank group)*100
According to the inhibition rates of different concentrations of the compound, the IC50 value of the compound for inhibiting activity of ATX enzyme in rat plasma, was calculated.

[2] = target: T3, ATX enzyme in human plasma (Homo sapiens, UniProt Q13822); experiment: Inhibition of activity of ATX enzyme in human plasma (LPA18:2 formation, LC-MSMS); format: biochemical; settings: for IC50: human plasma, 37° C., 3 h, LPA18:2 formation, read-out: IC50, inhibitory effect on activity of ATX enzyme in human plasma
T3 construct: Whole blood was collected from healthy volunteers and anticoagulated with heparin; from tissue; host or cells: human plasma (heparin) from healthy volunteers
Procedure: Whole blood was collected from healthy volunteers and anticoagulated with heparin. The blood collection tubes were centrifuged at 3,000 rpm for 10 min, and the plasma was taken and stored at −80° C. for use.
The compound was serially diluted with DMSO according to the conventional concentration requirements, then 3 μL of each of the diluted compound solutions was added to a 96-well plate, and 147 μL of PBS was added to each well containing 3 μL of the compound solution. After mixing homogenously, 50 μL of the mixture was taken out and added to a new 96-well plate. The human plasma was taken out from the −80° C. refrigerator and thawed through rapid shaking in a 37° C. water bath. 50 μL of the human plasma was taken and added to the 96-well plate containing 50 μL of the diluted compound (the final system contained 1% DMSO). The group without the compound was set as the positive group. The 96-well plate was shaken and mixed uniformly, and incubated at 37° C. for 3 h. A blank group was also provided, and the plasma of the blank group was stored at −80° C. The blank group is provided to determine the baseline concentration of endogenous LPA.
After the incubation was finished, the blank group was thawed on ice and transferred to an incubation plate. Excess acetonitrile containing the internal standard LPA17: 0 was added to the incubation plate to precipitate the plasma protein. After vortex centrifugation, the supernatant was taken and diluted, and a peak area of LPA18: 2 and a peak area of internal standard LPA17: 0 were detected using LC-MSMS mass spectrometry.
as §1, §2
According to the inhibition rates of different concentrations of the compound, the IC50 value of the compound for inhibiting activity of ATX enzyme in human plasma was calculated.

[3] = Thermodynamic solubility test; format: physicochemical; settings: thermodynamic from solid
Procedure: The compound was accurately weighed, and the prepared phosphate buffer (pH 7.4), FeSSIF solution (pH 5.8) and FaSSGF solution (pH 1.6) were added to prepare a solution with a concentration of 4 mg/mL, which was shaken at 1,000 rpm for 1 hour, and then incubated overnight at room temperature. After the incubation, the solution was centrifuged at 12,000 rpm for 10 min to remove undissolved particles, and the supernatant was transferred to a new centrifuge tube. The supernatant was diluted appropriately, then added with an acetonitrile solution containing the internal standard, and quantified using a standard curve prepared with the same matrix.

[4] = Pharmacokinetic test in canines; format: in vivo; settings: dog, plasma; male beagle dogs, oral gavage 5 mg/kg
Procedure: (§3) For the pharmacokinetic test of rats, 3 male SD rats (180-240 g) were used, and fasted overnight. The rats were orally administered by gavage (10 mg/kg). […] The blood samples were centrifuged at 8,000 rpm at 4° C. for 6 min, and plasma was collected and stored at −20° C. The plasma at each time point was taken and added with an acetonitrile solution containing internal standard in 3 to 5 times the amount, vortexed and mixed for 1 min, and centrifuged at 13,000 rpm at 4° C. for 10 min. The supernatant was collected, added with water in 3 times the amount, and mixed. An appropriate amount of the mixture was taken for LC-MS/MS analysis. The main pharmacokinetic parameters were analyzed using WinNonlin 7.0 software with non-compartmental model.
For the pharmacokinetics test of canines, 3 male beagle dogs (8 to 10 kg) were used, and fasted overnight. The dogs were orally administered by gavage (5 mg/kg). The rest of the operation is the same as the pharmacokinetic test in rats.

[5] = Human liver microsome stability test; settings: human liver microsomes; for Remaining percentage (%) of compound after incubation for 30 min: NADPH, 37° C.; for half-life at 1 µM: human
Procedure: The human liver microsome stability test was performed by incubating the compound and human liver microsomes in vitro for detection. First, the test compound was prepared into a 10 mM stock solution in DMSO solvent, and then the compound was diluted to 0.5 mM with acetonitrile. Human liver microsomes (Corning) were diluted with PBS and prepared as a microsome/buffer solution, which was used to dilute the 0.5 mM compound solution into a working solution. […] A deep-well multi-well plate was taken, 30 μL of the working solution and 15 μL of pre-warmed NADPH solution (6 mM) were sequentially added to each well to initiate a reaction, and the reaction was incubated at 37° C. […] After centrifugation, the supernatant was collected, and added with purified water in a ratio of 1:1 to perform LC-MS/MS detection. […] T1/2 was calculated by using Excel.

[6] = Pharmacokinetic test in rats; format: in vivo; settings: Sprague-Dawley, rat, plasma, male SD rats, oral gavage 10 mg/kg
Procedure: as §3

[7] = rat plasma, 37° C., 3 h, LPA18:2 formation, read-out: IC50, inhibitory effect on activity of ATX enzyme in rat plasma
[8] = FaSSGF solution, fassgf or other biorelevant, FaSSGF pH 1.6, overnight at room temperature, read-out: Solubility, FaSSGF (pH 1.6)
[9] = FeSSIF solution, FeSSIF pH 5.8, overnight at room temperature, read-out: Solubility, FeSSIF (pH 5.8)
[10] = phosphate buffer (PBS), aqueous buffer, PBS pH 7.4, overnight at room temperature, read-out: Solubility, PBS (pH 7.4)

SMILES: Cc1ccc(=O)n(-c2ccccc2)c1 [Pirfenidone]
probability of discontinuation due to serious adverse events [1]: 20.9%

IC50 (autotaxin (ATX) enzyme): 1.08 nM
IC50 (ATX enzyme in rat plasma; [7]): 4.8 nM
IC50 [2]: 11.8 nM
SMILES: O=C(c1cnc(NC2Cc3ccc(F)cc3C2)nc1)N1CC2(CC(OCc3c[nH]nn3)C2)C1 (centres unmarked) [Compound I-10, (6-((1H-1,2,3-triazol-4-yl)methoxy)-2-azaspiro[3.3]heptan-2-yl)(2-((5-fluoro-2,3-dihydro-1H-inden-2-yl)amino)pyrimidin-5-yl)methanone]
inhibitory activity on ATX enzyme in rat plasma compared with control compounds 1 and 2 (ATX enzyme in rat plasma): higher inhibitory activity on ATX enzyme in rat plasma than the control compounds 1 and 2
inhibitory effect on ATX enzyme in human plasma compared with control compounds 1 and 2 ([2]; comparison in words): higher inhibitory effect on ATX enzyme in human plasma than the control compounds 1 and 2

IC50 (autotaxin (ATX) enzyme): 2.04 nM
IC50 (ATX enzyme in rat plasma; [7]): 136 nM
SMILES: O=C(c1cnc(NC2Cc3cc(F)c(F)cc3C2)nc1)N1CCC(COCc2c[nH]nn2)CC1 [Compound I-8, (4-(((1H-1,2,3-triazol-4-yl)methoxy)methyl)piperidin-1-yl)(2-((5,6-difluoro-2,3-dihydro-1H-inden-2-yl)amino)pyrimidin-5-yl)methanone]

IC50 (autotaxin (ATX) enzyme): 1.16 nM
IC50 (ATX enzyme in rat plasma; [7]): 14.7 nM
IC50 [2]: 14.6 nM
SMILES: O=C(c1cnc(NC2Cc3ccc(F)cc3C2)nc1)N1CCC(COCc2c[nH]nn2)CC1 (centres unmarked) [Compound I-7, (4-(((1H-1,2,3-triazol-4-yl)methoxy)methyl)piperidin-1-yl)(2-((5-fluoro-2,3-dihydro-1H-inden-2-yl)amino)pyrimidin-5-yl)methanone]

IC50 (autotaxin (ATX) enzyme): 6.71 nM
IC50 [2]: 42.1 nM
SMILES: CC(OCc1c[nH]nn1)C1CCN(C(=O)c2cnc(NC3Cc4ccccc4C3)nc2)CC1 (centres unmarked) [Compound I-3, (4-(1-((1H-1,2,3-triazol-4-yl)methoxy)ethyl)piperidin-1-yl)(2-((2,3-dihydro-TH-inden-2-yl)amino)pyrimidin-5-yl)methanone]

IC50 (autotaxin (ATX) enzyme): 1.43 nM
solubility [3, 8]: 165 µg/mL (≈ 366 µM)
solubility [3, 9]: 49 µg/mL (≈ 109 µM)
solubility [3, 10]: 18.6 µg/mL (≈ 41.2 µM)
IC50 (ATX enzyme in rat plasma; [7]): 22.9 nM
IC50 [2]: 41.2 nM
SMILES: O=C(c1cnc(NC2Cc3ccccc3C2)nc1)N1CCC(COCc2c[nH]nn2)C(F)C1 (centres unmarked) [Compound I-6, (4-(((1H-1,2,3-triazol-4-yl)methoxy)methyl)-3-fluoropiperidin-1-yl)(2-((2,3-dihydro-1H-inden-2-yl)amino)pyrimidin-5-yl)methanone]

AUC(0-t) [4]: 14200 ng·h/mL
Cmax [4]: 2100 ng/mL
Tmax [4]: 2 h
Remaining percentage (%) of compound after incubation for 30 min [5]: 24.8%
half-life at 1 µM [5]: 16 min
Tmax [6]: 30 min
AUC(0-t) ([6]; read-out: AUC0-t): 2570 ng·h/mL
Cmax ([6]; read-out: Cmax): 582 ng/mL
IC50 (ATX enzyme in rat plasma): 413 nM
SMILES: CCc1nc2c(C)cc(N3CCN(CC(=O)N4CC(O)C4)CC3)cn2c1N(C)c1nc(-c2ccc(F)cc2)c(C#N)s1 [Control compound 2, reference compound]

IC50 (autotaxin (ATX) enzyme): 1.29 nM
solubility [3, 8]: 448 µg/mL (≈ 1000 µM)
solubility [3, 9]: 317 µg/mL (≈ 708 µM)
solubility [3, 10]: 129 µg/mL (≈ 288 µM)
IC50 (ATX enzyme in rat plasma; [7]): 10.7 nM
IC50 [2]: 30.9 nM
SMILES: CC1CC(COCc2c[nH]nn2)CCN1C(=O)c1cnc(NC2Cc3ccccc3C2)nc1 (centres unmarked) [Compound I-5, (4-(((1H-1,2,3-triazol-4-yl)methoxy)methyl)-2-methylpiperidin-1-yl)(2-((2,3-dihydro-1H-inden-2-yl)amino)pyrimidin-5-yl)methanone]
inhibitory activity on ATX enzyme in rat plasma compared with control compounds 1 and 2 (ATX enzyme in rat plasma): higher inhibitory activity on ATX enzyme in rat plasma than the control compounds 1 and 2

SMILES: COC(=O)c1ccc2c(c1)NC(=O)/C2=C(\Nc1ccc(N(C)C(=O)CN2CCN(C)CC2)cc1)c1ccccc1 [Nintedanib]
probability of discontinuation due to serious adverse events [1]: 26.3%
incidence of gastrointestinal reactions ([1]; patients): ≤ 50%

IC50 (autotaxin (ATX) enzyme): 3.39 nM
Remaining percentage (%) of compound after incubation for 30 min [5]: 39.65%
half-life at 1 µM [5]: 24 min
IC50 [2]: 24.7 nM
SMILES: CC(OCC1CCN(C(=O)c2cnc(NC3Cc4ccccc4C3)nc2)CC1)c1cn[nH]n1 (centres unmarked) [Compound I-2, (4-((1-(2H-1,2,3-triazol-4-yl)ethoxy)methyl)piperidin-1-yl)(2-((2,3-dihydro-1H-inden-2-yl)amino)pyrimidin-5-yl)methanone]

solubility [3, 8]: 332 µg/mL (≈ 741 µM)
solubility [3, 10]: 147 µg/mL (≈ 329 µM)
IC50 (ATX enzyme in rat plasma; [7]): 32.3 nM
SMILES: CC1CN(C(=O)c2cnc(NC3Cc4ccccc4C3)nc2)CCC1COCc1c[nH]nn1 (centres unmarked) [Compound I-4, (4-(((1H-1,2,3-triazol-4-yl)methoxy)methyl)-3-methylpiperidin-1-yl)(2-((2,3-dihydro-1H-inden-2-yl)amino)pyrimidin-5-yl)methanone]
